{
  "source": "PubChem BioAssay (NCI)",
  "experiment_in_all_cases": "NCI anticancer screen, dose series, 48 h",
  "key": {"NCI-H23 lung": {"test_system": "NCI-H23 lung"}, "NCI-H460 lung": {"test_system": "NCI-H460 lung"}, "NCI-H522 lung": {"test_system": "NCI-H522 lung"}, "NCI/ADR-RES ovarian": {"test_system": "NCI/ADR-RES ovarian"}, "OVCAR-3 ovarian": {"test_system": "OVCAR-3 ovarian"}, "OVCAR-4 ovarian": {"test_system": "OVCAR-4 ovarian"}, "OVCAR-5 ovarian": {"test_system": "OVCAR-5 ovarian"}, "OVCAR-8 ovarian": {"test_system": "OVCAR-8 ovarian"}, "PC-3 prostate": {"test_system": "PC-3 prostate"}, "RPMI-8226 leukemia": {"test_system": "RPMI-8226 leukemia"}, "RXF 393 renal": {"test_system": "RXF 393 renal"}, "SF-268 CNS": {"test_system": "SF-268 CNS"}, "SF-295 CNS": {"test_system": "SF-295 CNS"}, "SF-539 CNS": {"test_system": "SF-539 CNS"}, "SK-MEL-2 melanoma": {"test_system": "SK-MEL-2 melanoma"}, "SK-MEL-28 melanoma": {"test_system": "SK-MEL-28 melanoma"}, "SK-MEL-5 melanoma": {"test_system": "SK-MEL-5 melanoma"}, "SK-OV-3 ovarian": {"test_system": "SK-OV-3 ovarian"}, "SN12C renal": {"test_system": "SN12C renal"}, "SNB-19 CNS": {"test_system": "SNB-19 CNS"}, "SNB-75 CNS": {"test_system": "SNB-75 CNS"}, "SR leukemia": {"test_system": "SR leukemia"}, "SW-620 colon": {"test_system": "SW-620 colon"}, "T-47D breast": {"test_system": "T-47D breast"}, "TK-10 renal": {"test_system": "TK-10 renal"}, "U251 CNS": {"test_system": "U251 CNS"}, "UACC-257 melanoma": {"test_system": "UACC-257 melanoma"}, "UACC-62 melanoma": {"test_system": "UACC-62 melanoma"}, "UO-31 renal": {"test_system": "UO-31 renal"}},
  "note": "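Compound exposure: 48 hours, 5 concentrations, 96-well plates. Abbreviation: GI50, concentration required for 50% inhibition of growth. TGI is the concentration that stops growth completely.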",
  "data": [
    {"smiles": "N=C(N)SCc1c2ccccc2c(CSC(=N)N)c2ccccc12", "values": [
      {"measurement": "GI50", "setting": "NCI-H23 lung", "value": 4.04, "unit": "µM"},
      {"measurement": "TGI", "setting": "NCI-H23 lung", "value": 20.5, "unit": "µM"},
      {"measurement": "GI50", "setting": "NCI-H460 lung", "value": 1.08, "unit": "µM"},
      {"measurement": "TGI", "setting": "NCI-H460 lung", "value": 15.3, "unit": "µM"},
      {"measurement": "GI50", "setting": "NCI-H522 lung", "value": 3.23, "unit": "µM"},
      {"measurement": "TGI", "setting": "NCI-H522 lung", "value": 30.7, "unit": "µM"},
      {"measurement": "GI50", "setting": "NCI/ADR-RES ovarian", "value": 23.8, "unit": "µM"},
      {"measurement": "TGI", "setting": "NCI/ADR-RES ovarian", "value": "> 100", "unit": "µM"},
      {"measurement": "GI50", "setting": "OVCAR-3 ovarian", "value": 12.4, "unit": "µM"},
      {"measurement": "TGI", "setting": "OVCAR-3 ovarian", "value": 30.2, "unit": "µM"},
      {"measurement": "GI50", "setting": "OVCAR-4 ovarian", "value": 11.7, "unit": "µM"},
      {"measurement": "TGI", "setting": "OVCAR-4 ovarian", "value": 35.5, "unit": "µM"},
      {"measurement": "GI50", "setting": "OVCAR-5 ovarian", "value": 14.8, "unit": "µM"},
      {"measurement": "TGI", "setting": "OVCAR-5 ovarian", "value": 28.7, "unit": "µM"},
      {"measurement": "GI50", "setting": "OVCAR-8 ovarian", "value": 6.49, "unit": "µM"},
      {"measurement": "TGI", "setting": "OVCAR-8 ovarian", "value": 50.4, "unit": "µM"},
      {"measurement": "GI50", "setting": "PC-3 prostate", "value": 10.3, "unit": "µM"},
      {"measurement": "TGI", "setting": "PC-3 prostate", "value": 23.9, "unit": "µM"},
      {"measurement": "GI50", "setting": "RPMI-8226 leukemia", "value": 2.56, "unit": "µM"},
      {"measurement": "TGI", "setting": "RPMI-8226 leukemia", "value": 16.8, "unit": "µM"},
      {"measurement": "GI50", "setting": "RXF 393 renal", "value": 8.22, "unit": "µM"},
      {"measurement": "TGI", "setting": "RXF 393 renal", "value": 23.7, "unit": "µM"},
      {"measurement": "GI50", "setting": "SF-268 CNS", "value": 4.32, "unit": "µM"},
      {"measurement": "TGI", "setting": "SF-268 CNS", "value": 26, "unit": "µM"},
      {"measurement": "GI50", "setting": "SF-295 CNS", "value": 5.25, "unit": "µM"},
      {"measurement": "TGI", "setting": "SF-295 CNS", "value": 24.2, "unit": "µM"},
      {"measurement": "GI50", "setting": "SF-539 CNS", "value": 5.11, "unit": "µM"},
      {"measurement": "TGI", "setting": "SF-539 CNS", "value": 19.4, "unit": "µM"},
      {"measurement": "GI50", "setting": "SK-MEL-2 melanoma", "value": 18, "unit": "µM"},
      {"measurement": "TGI", "setting": "SK-MEL-2 melanoma", "value": 41.3, "unit": "µM"},
      {"measurement": "GI50", "setting": "SK-MEL-28 melanoma", "value": 10.6, "unit": "µM"},
      {"measurement": "TGI", "setting": "SK-MEL-28 melanoma", "value": 24.1, "unit": "µM"},
      {"measurement": "GI50", "setting": "SK-MEL-5 melanoma", "value": 6.03, "unit": "µM"},
      {"measurement": "TGI", "setting": "SK-MEL-5 melanoma", "value": 20.2, "unit": "µM"},
      {"measurement": "GI50", "setting": "SK-OV-3 ovarian", "value": 10.4, "unit": "µM"},
      {"measurement": "TGI", "setting": "SK-OV-3 ovarian", "value": 22.6, "unit": "µM"},
      {"measurement": "GI50", "setting": "SN12C renal", "value": 3, "unit": "µM"},
      {"measurement": "TGI", "setting": "SN12C renal", "value": 25.7, "unit": "µM"},
      {"measurement": "GI50", "setting": "SNB-19 CNS", "value": 11.5, "unit": "µM"},
      {"measurement": "TGI", "setting": "SNB-19 CNS", "value": 25, "unit": "µM"},
      {"measurement": "GI50", "setting": "SNB-75 CNS", "value": 12.2, "unit": "µM"},
      {"measurement": "TGI", "setting": "SNB-75 CNS", "value": 26.9, "unit": "µM"},
      {"measurement": "GI50", "setting": "SR leukemia", "value": 0.408, "unit": "µM"},
      {"measurement": "TGI", "setting": "SR leukemia", "value": 3.03, "unit": "µM"},
      {"measurement": "GI50", "setting": "SW-620 colon", "value": 3.75, "unit": "µM"},
      {"measurement": "TGI", "setting": "SW-620 colon", "value": 19.7, "unit": "µM"},
      {"measurement": "GI50", "setting": "T-47D breast", "value": 3.97, "unit": "µM"},
      {"measurement": "TGI", "setting": "T-47D breast", "value": 22.1, "unit": "µM"},
      {"measurement": "GI50", "setting": "TK-10 renal", "value": 22.3, "unit": "µM"},
      {"measurement": "TGI", "setting": "TK-10 renal", "value": 45.3, "unit": "µM"},
      {"measurement": "GI50", "setting": "U251 CNS", "value": 3.13, "unit": "µM"},
      {"measurement": "TGI", "setting": "U251 CNS", "value": 26.7, "unit": "µM"},
      {"measurement": "GI50", "setting": "UACC-257 melanoma", "value": 23.2, "unit": "µM"},
      {"measurement": "TGI", "setting": "UACC-257 melanoma", "value": 45, "unit": "µM"},
      {"measurement": "GI50", "setting": "UACC-62 melanoma", "value": 3.59, "unit": "µM"},
      {"measurement": "TGI", "setting": "UACC-62 melanoma", "value": 20.3, "unit": "µM"},
      {"measurement": "GI50", "setting": "UO-31 renal", "value": 14.1, "unit": "µM"},
      {"measurement": "TGI", "setting": "UO-31 renal", "value": 34.5, "unit": "µM"}
    ]}
  ]
}
